Reference: US11358931B2, “Selective androgen receptor modulators (SARMs) and uses thereof” (priority 2007, dated 2022)
“Also recorded” adds a separate entry of the source. Where two headings read alike, the source gives them in different places.

Assays:
[1] = system: human skeletal α-actin promoter activity; test: Skeletal α-actin promoter assay (C2C12 cells transfected with human AR); type: cell-based
Excerpt: An exemplary assay for measuring AR-mediated gene expression in mouse muscle cells is the human skeletal α-actin assay. A mouse muscle cell line (C2C12, obtained from American Type Cell Culture (ATCC, Rockville, Md.)) can be used in the luciferase reporter assay. An SK α-actin-LUC reporter plasmid is constructed by inserting the skeletal α-actin promoter sequence into a luciferase reporter vector (e.g., by cloning the human skeletal α-actin promoter region from −77 to +202 bp from human liver genomic DNA (Clontech, Palo Alti, Calif.) and inserting the sequence into a pGL3-Basic reporter plasmid (Promega, Madison, Wis.)). The C2C12 cell line can be transiently transfected with a human AR expression plasmid and a luciferase reporter plasmid containing the skeletal α-actin promoter upstream of the luciferase cDNA. The compounds to be tested are added to the cells after transfection and after 24 hours of incubation, the cells are lysed with a detergent-containing buffer and assayed for luciferase activity.
Compound 102 was tested to determine its ability to activate human skeletal α-actin using the skeletal α-actin promoter assay. A mouse muscle cell line (C2C12) was transiently transfected with a human AR expression plasmid and a luciferase reporter plasmid containing the skeletal α-actin promoter upstream of the luciferase cDNA. C2C12 cells (at a concentration of 5×10^5) were seeded in a T25 flask and cultured for 24 hours. The cells were harvested by using trypsin and seeded at 6000 cells/well in 96-well plates. The same day, a non-liposomal formulation, FuGENE 6 reagent (Roche, Indianapolis, Ind.) was used for transfection of the cells. To each well was added 45.5 ng of the skeletal α-actin-LUC reporter plasmid, 4.55 ng pRShAR and 5 ng pRS-BG as carrier DNA. Twenty-four hours after transfection, different concentrations of the solvated compound (10^−10 to 10^−6 M) were added in triplicate to the cells and the cells were incubated for 24 hours. The medium was aspirated and the cells were lysed with a detergent-containing buffer. After addition of Luciferase Assay Buffer to each well, the cells were assayed for luciferase activity using a luminometer to determine the level of transcriptional activation.

[2] = system: ovariectomized mature female rat; test: In vivo assay, ovariectomized mature female rats (12 weeks)
Excerpt: In animal models of osteoporosis, androgens increase bone density and strength in male rats (Wakely et al., J Bone & Mineral Research 6: 325-330 (1991) and Vandenput et al., Calcified Tissue International 70: 170-175 (2002)) and female rats (Tobias et al., Am J Physiology 267: E853-E859 (1994) and Coxam et al., Bone 19: 107-114 (1996)). The ovariectomized mature female rat model was used to assess the effects of orally administered compounds provided herein, such as Compound 102, on bone as well as other efficacy and side-effect endpoints including muscle mass, fat mass and clitoral gland weight.
In this assay, approximately three-month old rats were acclimated in a vivarium for one week. After acclimation, rats were anesthetized with Avertin and the ovariectomy (OVX) was performed using the dorsal approach. For the sham procedure, the surgical procedure was conducted per protocol, and the ovaries exteriorized but not removed. After recovery, no further experimental manipulations were performed for seven weeks, at which point the rats were scanned by dual energy x-ray absorptiometry and sorted into experimental groups based upon femoral bone mineral content (BMC). Three dosages of Compound 102 were tested (0.03, 0.3 and 3 mg/kg/day PO). For comparison, ostarine, a known non-steroidal SARM, was tested at the same dosages (0.03, 0.3 and 3 mg/kg/day PO). In addition, reference compounds estradiol and testosterone were administered. Estradiol was administered subcutaneously to one ovariectomized group at a dose of 0.1 mg/kg/day and testosterone propionate was administered subcutaneously to another ovariectomized group at a dose of 1 mg/kg/day.
Treatment continued once daily for 12 weeks, at which point animals were euthanized and tissues were collected for further analysis. Animals received subcutaneous injections of fluorochrome markers for bone histomorphometric analysis. Alizarian Red S was prepared as a 3% solution and given at a dose of 30 mg/kg at the time of the baseline scan. Calcein was administered 10 days and 3 days prior to necropsy.
(§1) After the 14th dose, approximately 250 μL venous blood was collected via percutaneous jugular puncture from the rats at 0, 0.5, 1, 2, 4 and 6 hours post-dosing. The blood samples were collected into lithium-heparin tubes (Becton Dickinson, Franklin Lakes, N.J.). Plasma fractions were collected for pharmacokinetic analysis. Approximately 24 hours after the last dose, rats were sacrificed by cardiac exsanguination, and blood was collected into serum separator tubes (Becton Dickinson), and the gastrocnemius muscle, plantaris muscle, uterus, clitoral glands, clitoris and inguinal fat pads were isolated, blotted and weighed individually. Uterine weight measurements can be inaccurate in surgically ovariectomized rats due to the potential loss of uterine tissue at the tips of the uterine horns during removal of the ovaries. To minimize this variability, the length of the uterine horns was measured and the uterine weight was reported normalized to uterine length. The left femur and lumbar vertebra L5 were wrapped in saline-soaked gauze and stored at −20° C. for biochemical analysis. The right femur and lumbar vertebrae L3-L4 were collected and stored in 70% ethanol for histomorphometry. The right tibia was collected in formalin for histological analysis. The left tibia was collected on dry ice and stored at −20° C. for measurement of alkaline phosphatase activity.
Compound 102 and ostarine individually were formulated in a solution containing 5% Tween-80 polysorbate, 90% PEG-400 polyethylene glycol, and 5% polyvinylpyrrolidone K30. The mixture was stirred and sonicated in a water bath for 30 minutes until the compound dissolved into a solution. After sonication, 1% carboxymethyl cellulose (CMC) in water was added to the solution in a 9:1 ratio (9 parts CMC/water solution to 1 part PEG-400/Tween-80/PVP). Compound 102 and ostarine were administered orally in a volume of 4 mL/kg. […]

[3] = Pharmacokinetics in ovariectomized female rats (plasma, Day 14); type: in vivo, rat; settings: rat, plasma, OVX female rats, PO; for AUC: female, po
Protocol: as §1
Pharmacokinetic analysis was performed as described in Example 13.

[4] = OVX rats, high dose (3 mg/kg/day PO)
[5] = OVX rats, low dose (0.03 mg/kg/day PO)
[6] = OVX rats, maximally effective dose 0.3 mg/kg PO
[7] = Day 14, 0.03 mg/kg, mean ± SD of n = 4
[8] = Day 14, 0.3 mg/kg, mean ± SD of n = 4
[9] = Day 14, 3 mg/kg, mean ± SD of n = 4

In the case of N#Cc1ccc(N2CCC[C@@H]2[C@@H](O)C(F)(F)F)cc1C(F)(F)F [Compound 102, R,R-4-(2-(1-Hydroxyl-2,2,2-trifluoroethyl)-pyrrolidinyl)-2-trifluoromethyl-benzonitrile], the EC50 ([1]; C2C12, read-out: EC50, activation of skeletal α-actin promoter) is reported as 8.7 nM, the “efficacy, % of DHT” value ([1]; C2C12 mouse muscle cells) is reported as 93% and the “increase of skeletal α-actin promoter activity compared to vehicle control” value ([1]; concentration 1×10^−7 M) is reported as “about 17.5 fold”. For the same compound, the “more potent in stimulating muscle cells than LG0893410 and LG0893411” value ([1]; ratio of EC50) was 5-10 fold, the “uterine weight to length ratio versus OVX controls” value ([2]; 0.03-3 mg/kg/day PO) was “increased uterine weight to length ratio above estrogen deficient OVX controls in a dose dependent manner” and the “uterine weight to length ratio versus sham levels” value ([2]; OVX rats, high dose (3 mg/kg)) was “significantly (P<0.01) increased above sham levels”. For the same compound, the clitoral gland weight [2, 4] was “increased clitoral gland weight”, the clitoral weight [2, 4] was “significantly increased clitoral weight” and the “increase of uterine weight to length ratio compared with ostarine” value ([2]; OVX rats, low and mid dose, P<0.01) was “significantly less than ostarine”. For the same compound, the clitoral gland weight [2, 5] was “Neither Compound 102 nor ostarine affected”, the clitoral weight [2, 5] was “did not affect clitoral weight” and the “uterine weight to length ratio versus sham operated controls” value [2, 5] was “significantly (P<0.01) less than sham operated controls”. The “increase of gastrocnemius muscle mass” value [2, 6] was 17%, the “mean change in body weight” value [2, 6] was “+66 grams” and the “clitoral weight, activity versus testosterone” value ([2]; OVX rats, mid dose (0.3 mg/kg)) was “significantly less activity versus testosterone”. The “clitoral gland weight versus sham” value ([2]; OVX rats, mid dose (0.3 mg/kg), 0.3 mg/kg) was “only slightly above the sham level; also recorded: did not quite achieve statistical significance versus sham”, the “uterine weight to length ratio versus sham operated controls” value ([2]; OVX rats, mid dose (0.3 mg/kg/day PO)) was “significantly (P<0.01) less than sham operated controls” and the AUC ([3]; 0.03 mg/kg, Day 14, 0.03 mg/kg, mean ± SD of n = 4, read-out: AUC6) was 56 ± 56 ng·h/mL. It also gave an AUC ([3]; 0.03 mg/kg, Day 14, 0.03 mg/kg, n = 4, 0 hr conc. substituted for 24 hr, read-out: AUC24) of 119 ± 90 ng·h/mL, an AUC ([3]; 0.3 mg/kg, Day 14, 0.3 mg/kg, mean ± SD of n = 4, read-out: AUC6) of 51 ± 41 ng·h/mL and an AUC ([3]; 0.3 mg/kg, Day 14, 0.3 mg/kg, n = 4, 0 hr conc. substituted for 24 hr, read-out: AUC24) of 229 ± 289 ng·h/mL. The AUC ([3]; 3 mg/kg, Day 14, 3 mg/kg, mean ± SD of n = 4, read-out: AUC6) was 404 ± 199 ng·h/mL, the AUC ([3]; 3 mg/kg, Day 14, 3 mg/kg, n = 4, 0 hr conc. substituted for 24 hr, read-out: AUC24) was 880 ± 326 ng·h/mL and the Cmax [3, 7] was 39 ± 28 ng/mL. For the same compound, the Tmax [3, 7] was 210 ± 114 min, the Cmax [3, 8] was 40 ± 34 ng/mL and the Tmax [3, 8] was 30 ± 24 min. It also gave a Cmax [3, 9] of 207 ± 87 ng/mL and a Tmax [3, 9] of 30 min.
